Results published in PMC11213733, “Computational approaches identify a transcriptomic fingerprint of drug-induced structural cardiotoxicity” (Cell Biology and Toxicology, 2024).
Counter-ions that a name gives are not always drawn. Like-named read-outs stand apart in the source and are kept apart here.

Legend:
cardiac microtissues [1] = experiment: Ingenuity Pathway Analysis over-representation of differentially expressed genes (activation Z-score); format: cell-based, human; details: 48hr high; Group 2
cardiac microtissues [2] = experiment: Targeted qRT-PCR of ATAD3C, CDH13, IL6, PTX3, SLC7A5, UCHL1 in cardiac microtissues; format: cell-based, human; details: Sorafenib 3.74 µM, Sunitinib 3.53 µM, Dasatinib 10.8 µM; for activity at 3.74 µM: Homo sapiens, read-out: % of control
Protocol: The experiment was performed with three technical replicates across 1-2 independent replicates.

cardiac microtissues [3] = experiment: ATP depletion (CellTiter Glo Luminescent Cell Viability Assay) in cardiac microtissues; format: cell-based, human; details: the concentration is the IC30 of ATP depletion, or cell death caused
Protocol: Cellular ATP concentrations were also assessed using the CellTiter Glo® Luminescent Cell Viability Assay as per the manufacturer’s instructions (Promega).

[4] = ref FDA label, cited from earlier work
cardiac microtissues [5] = experiment: Transcriptomic profiling (mRNA-seq) and DESeq2 differential gene expression analysis in cardiac microtissues; details: absolute log2(Fold-Change) > 1, FDR p ≤ 0.05
hiPS-CMs = system: hiPS-CMs; design: method as in Harmer et al., 2012; details: 10 µM; ref Harmer et al., 2012; cited from earlier work

CNC(=O)c1cc(Oc2ccc(NC(=O)Nc3ccc(Cl)c(C(F)(F)F)c3)cc2)ccn1 [Sorafenib Tosylate]
activation Z-score: Acute Phase Response Signaling (cardiac microtissues [1]): -1.414
activation Z-score: Adrenomedullin signaling pathway (cardiac microtissues [1]): 0.447
activation Z-score: Aryl Hydrocarbon Receptor Signaling (cardiac microtissues [1]): -1.342
activation Z-score: Breast Cancer Regulation by Stathmin1 (cardiac microtissues [1]): -2.111
activation Z-score: Cardiac Hypertrophy Signaling (Enhanced) (cardiac microtissues [1]): -1.387
activation Z-score: Cell Cycle: G2/M DNA Damage Checkpoint Regulation (cardiac microtissues [1]): -2.236
activation Z-score: Colorectal Cancer Metastasis Signaling (cardiac microtissues [1]): -1.633
activation Z-score: Cyclins and Cell Cycle Regulation (cardiac microtissues [1]): 1.342
activation Z-score: Endothelin-1 Signaling (cardiac microtissues [1]): -2
activation Z-score: G-Protein Coupled Receptor Signaling (cardiac microtissues [1]): -1.897
activation Z-score: HIF1Î± Signaling (cardiac microtissues [1]): -0.447
activation Z-score: HMGB1 Signaling (cardiac microtissues [1]): -1.897
activation Z-score: Hepatic Fibrosis Signaling Pathway (cardiac microtissues [1]): -2.111
activation Z-score: IL-6 Signaling (cardiac microtissues [1]): -1.667
activation Z-score: IL-8 Signaling (cardiac microtissues [1]): -2
activation Z-score: ILK Signaling (cardiac microtissues [1]): -1
activation Z-score: Immunogenic Cell Death Signaling Pathway (cardiac microtissues [1]): -1
activation Z-score: Kinetochore Metaphase Signaling Pathway (cardiac microtissues [1]): 1.886
activation Z-score: LXR/RXR Activation (cardiac microtissues [1]): 2.333
activation Z-score: Leukocyte Extravasation Signaling (cardiac microtissues [1]): -2
activation Z-score: MIF Regulation of Innate Immunity (cardiac microtissues [1]): -2
activation Z-score: Macrophage Alternative Activation Signaling Pathway (cardiac microtissues [1]): 2.236
activation Z-score: Osteoarthritis Pathway (cardiac microtissues [1]): -2.714
activation Z-score: Oxytocin Signaling Pathway (cardiac microtissues [1]): -2.236
activation Z-score: PPAR Signaling (cardiac microtissues [1]): 2.236
activation Z-score: Pulmonary Fibrosis Idiopathic Signaling Pathway (cardiac microtissues [1]): -1.897
activation Z-score: Pulmonary Healing Signaling Pathway (cardiac microtissues [1]): -0.447
activation Z-score: Pyridoxal 5'-phosphate Salvage Pathway (cardiac microtissues [1]): 2.236
activation Z-score: Regulation Of The Epithelial Mesenchymal Transition By Growth Factors Pathway (cardiac microtissues [1]): -1.89
activation Z-score: Ribonucleotide Reductase Signaling Pathway (cardiac microtissues [1]): -0.816
activation Z-score: Role of IL-17F in Allergic Inflammatory Airway Diseases (cardiac microtissues [1]): -2
activation Z-score: Role of JAK family kinases in IL-6-type Cytokine Signaling (cardiac microtissues [1]): -1.414
activation Z-score: Salvage Pathways of Pyrimidine Ribonucleotides (cardiac microtissues [1]): 2.236
activation Z-score: Senescence Pathway (cardiac microtissues [1]): -1.89
activation Z-score: Signaling by Rho Family GTPases (cardiac microtissues [1]): -0.447
activation Z-score: TREM1 Signaling (cardiac microtissues [1]): -2
activation Z-score: White Adipose Tissue Browning Pathway (cardiac microtissues [1]): 0
activation Z-score: Wound Healing Signaling Pathway (cardiac microtissues [1]): -2.714
activity at 3.74 µM (cardiac microtissues [2]; gene ATAD3C, Run 1): 85.7%
activity at 3.74 µM (cardiac microtissues [2]; gene CDH13, Run 1): 74%
activity at 3.74 µM (cardiac microtissues [2]; gene CDH13, Run 2): 113%
activity at 3.74 µM (cardiac microtissues [2]; gene IL6, Run 1): 35.3%
activity at 3.74 µM (cardiac microtissues [2]; gene IL6, Run 2): 6.7%
activity at 3.74 µM (cardiac microtissues [2]; gene PTX3, Run 1): 73.7%
activity at 3.74 µM (cardiac microtissues [2]; gene PTX3, Run 2): 74%
activity at 3.74 µM (cardiac microtissues [2]; gene SLC7A5, Run 1): 57%
activity at 3.74 µM (cardiac microtissues [2]; gene SLC7A5, Run 2): 50.2%
activity at 3.74 µM (cardiac microtissues [2]; gene UCHL1, Run 1): 66.2%
activity at 3.74 µM (cardiac microtissues [2]; gene UCHL1, Run 2): 70.9%
2^-ΔΔCt of Individual reps, Treated 1 (cardiac microtissues [2]; gene ATAD3C, Run 1): 0.8342
2^-ΔΔCt of Individual reps, Treated 2 (cardiac microtissues [2]; gene ATAD3C, Run 1): 0.8632
2^-ΔΔCt of Individual reps, Treated 3 (cardiac microtissues [2]; gene ATAD3C, Run 1): 0.8757
Average 2^-ΔΔCt, Treated (cardiac microtissues [2]; gene ATAD3C, Run 1): 0.8577
2^-ΔΔCt of Individual reps, Treated 1 (cardiac microtissues [2]; gene CDH13, Run 1): 0.6992
2^-ΔΔCt of Individual reps, Treated 2 (cardiac microtissues [2]; gene CDH13, Run 1): 0.7927
2^-ΔΔCt of Individual reps, Treated 3 (cardiac microtissues [2]; gene CDH13, Run 1): 0.7507
Average 2^-ΔΔCt, Treated (cardiac microtissues [2]; gene CDH13, Run 1): 0.7476
2^-ΔΔCt of Individual reps, Treated 1 (cardiac microtissues [2]; gene CDH13, Run 2): 1.515
2^-ΔΔCt of Individual reps, Treated 2 (cardiac microtissues [2]; gene CDH13, Run 2): 1.105
2^-ΔΔCt of Individual reps, Treated 3 (cardiac microtissues [2]; gene CDH13, Run 2): 0.7867
Average 2^-ΔΔCt, Treated (cardiac microtissues [2]; gene CDH13, Run 2): 1.136
2^-ΔΔCt of Individual reps, Treated 1 (cardiac microtissues [2]; gene IL6, Run 1): 0.3353
2^-ΔΔCt of Individual reps, Treated 2 (cardiac microtissues [2]; gene IL6, Run 1): 0.4238
2^-ΔΔCt of Individual reps, Treated 3 (cardiac microtissues [2]; gene IL6, Run 1): 0.3063
Average 2^-ΔΔCt, Treated (cardiac microtissues [2]; gene IL6, Run 1): 0.3551
2^-ΔΔCt of Individual reps, Treated 1 (cardiac microtissues [2]; gene IL6, Run 2): 0.169
2^-ΔΔCt of Individual reps, Treated 2 (cardiac microtissues [2]; gene IL6, Run 2): 0.0204
2^-ΔΔCt of Individual reps, Treated 3 (cardiac microtissues [2]; gene IL6, Run 2): 0.0311
Average 2^-ΔΔCt, Treated (cardiac microtissues [2]; gene IL6, Run 2): 0.07349
2^-ΔΔCt of Individual reps, Treated 1 (cardiac microtissues [2]; gene PTX3, Run 1): 0.6982
2^-ΔΔCt of Individual reps, Treated 2 (cardiac microtissues [2]; gene PTX3, Run 1): 0.8787
2^-ΔΔCt of Individual reps, Treated 3 (cardiac microtissues [2]; gene PTX3, Run 1): 0.6669
Average 2^-ΔΔCt, Treated (cardiac microtissues [2]; gene PTX3, Run 1): 0.7479
2^-ΔΔCt of Individual reps, Treated 1 (cardiac microtissues [2]; gene PTX3, Run 2): 0.9568
2^-ΔΔCt of Individual reps, Treated 2 (cardiac microtissues [2]; gene PTX3, Run 2): 0.4098
2^-ΔΔCt of Individual reps, Treated 3 (cardiac microtissues [2]; gene PTX3, Run 2): 0.8963
Average 2^-ΔΔCt, Treated (cardiac microtissues [2]; gene PTX3, Run 2): 0.7543
2^-ΔΔCt of Individual reps, Treated 1 (cardiac microtissues [2]; gene SLC7A5, Run 1): 0.5608
2^-ΔΔCt of Individual reps, Treated 2 (cardiac microtissues [2]; gene SLC7A5, Run 1): 0.6339
2^-ΔΔCt of Individual reps, Treated 3 (cardiac microtissues [2]; gene SLC7A5, Run 1): 0.5348
Average 2^-ΔΔCt, Treated (cardiac microtissues [2]; gene SLC7A5, Run 1): 0.5765
2^-ΔΔCt of Individual reps, Treated 1 (cardiac microtissues [2]; gene SLC7A5, Run 2): 0.6489
2^-ΔΔCt of Individual reps, Treated 2 (cardiac microtissues [2]; gene SLC7A5, Run 2): 0.4574
2^-ΔΔCt of Individual reps, Treated 3 (cardiac microtissues [2]; gene SLC7A5, Run 2): 0.4262
Average 2^-ΔΔCt, Treated (cardiac microtissues [2]; gene SLC7A5, Run 2): 0.5108
2^-ΔΔCt of Individual reps, Treated 1 (cardiac microtissues [2]; gene UCHL1, Run 1): 0.6452
2^-ΔΔCt of Individual reps, Treated 2 (cardiac microtissues [2]; gene UCHL1, Run 1): 0.6787
2^-ΔΔCt of Individual reps, Treated 3 (cardiac microtissues [2]; gene UCHL1, Run 1): 0.6738
Average 2^-ΔΔCt, Treated (cardiac microtissues [2]; gene UCHL1, Run 1): 0.6659
2^-ΔΔCt of Individual reps, Treated 1 (cardiac microtissues [2]; gene UCHL1, Run 2): 0.8432
2^-ΔΔCt of Individual reps, Treated 2 (cardiac microtissues [2]; gene UCHL1, Run 2): 0.6978
2^-ΔΔCt of Individual reps, Treated 3 (cardiac microtissues [2]; gene UCHL1, Run 2): 0.5876
Average 2^-ΔΔCt, Treated (cardiac microtissues [2]; gene UCHL1, Run 2): 0.7095
Transcriptomic high concentration (µM) = IC30 of ATP depletion (cardiac microtissues [3]): 3.74 µM
Structural cardiotoxin? ([4]; FDA label references heart failure or a decrease in left ventricular ejection fraction): Y
Functional cardiotoxin? ([4]; compound annotation): Y
number of significant differentially expressed genes, 6hr high (cardiac microtissues [5]; 6 hr, high concentration): 13
number of significant differentially expressed genes, 6hr low (cardiac microtissues [5]; 6 hr, low concentration): 7
number of significant differentially expressed genes, 48hr high (cardiac microtissues [5]; 48 hr, high concentration): 268
number of significant differentially expressed genes, 48hr low (cardiac microtissues [5]; 48 hr, low concentration): 150
number of significant differentially expressed genes, 72hr high (cardiac microtissues [5]; 72 hr, high concentration): 204
number of significant differentially expressed genes, 72hr low (cardiac microtissues [5]; 72 hr, low concentration): 143

COc1ccc(CCN(C)CCCC(C#N)(c2ccc(OC)c(OC)c2)C(C)C)cc1OC (stereo not shown) [verapamil]
inhibition of calcium transient signal in cardiomyocytes (hiPS-CMs): inhibit almost all of the calcium transient signal
